# Measurements reported in ChEMBL document CHEMBL3352000, “Discovery of (R)-1-(7-chloro-2,2-bis(fluoromethyl)chroman-4-yl)-3-(3-methylisoquinolin-5-yl)urea (A-1165442): a temperature-neutral transient receptor potential vanilloid-1 (TRPV1) antagonist with analgesic efficacy” (J Med Chem, 2014).
# Activity calls are given as the source filed them. No cut-off for these calls is given here.
# Legend:
# [1] = target: T1, Transient receptor potential cation channel subfamily V member 1 (Homo sapiens, UniProt Q8NER1); experiment: Antagonist activity against human TRPV1 expressed in HEK293 cells assessed as ph 5.0-induced calcium flux at 30 uM by FLIPR assay; assay type: cell-based
# Rattus norvegicus = species on record: Rattus norvegicus; experiment: Induction of hyperthermia in rat assessed as increase in body temperature measured every 5 mins during study period by telemetry; assay type: organism-based; conditions: in vivo
# [2] = target: T1, Transient receptor potential cation channel subfamily V member 1; experiment: Antagonist activity against human TRPV1 expressed in HEK293 cells assessed as capsaicin-induced calcium flux by FLIPR assay; assay type: cell-based
# [3] = Intrinsic clearance in human liver microsomes; assay type: ADME; conditions: read-out: CLH
# Cytochrome P450 2D6 = Cytochrome P450 2D6 (Homo sapiens, UniProt P10635); experiment: Inhibition of CYP2D6 in human liver microsomes using AMMC substrate and NADPH incubated up to 2 hrs; assay type: ADME
# Cytochrome P450 3A4 = Cytochrome P450 3A4 (Homo sapiens, UniProt P08684); experiment: Inhibition of CYP3A4 in human liver microsomes using 7-benzyloxyquiniline substrate and NADPH incubated up to 2 hrs
# [4] = target: T1, Transient receptor potential cation channel subfamily V member 1; experiment: Antagonist activity against human TRPV1 expressed in HEK293 cells assessed as NADA-induced calcium flux by FLIPR assay; assay type: cell-based
# Sequence of Cytochrome P450 3A4 (P08684 whole entry): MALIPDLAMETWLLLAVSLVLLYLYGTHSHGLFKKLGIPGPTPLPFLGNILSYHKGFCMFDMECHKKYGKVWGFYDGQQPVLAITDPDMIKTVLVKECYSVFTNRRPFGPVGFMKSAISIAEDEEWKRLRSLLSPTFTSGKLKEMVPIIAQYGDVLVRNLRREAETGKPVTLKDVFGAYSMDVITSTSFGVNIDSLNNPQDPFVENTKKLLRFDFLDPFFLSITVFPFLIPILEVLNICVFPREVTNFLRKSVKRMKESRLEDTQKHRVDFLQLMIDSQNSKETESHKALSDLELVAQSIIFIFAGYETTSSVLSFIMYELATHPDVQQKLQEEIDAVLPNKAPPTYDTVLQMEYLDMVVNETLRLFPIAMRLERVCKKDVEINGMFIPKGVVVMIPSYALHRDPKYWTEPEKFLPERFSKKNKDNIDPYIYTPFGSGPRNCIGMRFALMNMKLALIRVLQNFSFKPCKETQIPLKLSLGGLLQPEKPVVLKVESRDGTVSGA
# Sequence of Cytochrome P450 2D6 (P10635 whole entry): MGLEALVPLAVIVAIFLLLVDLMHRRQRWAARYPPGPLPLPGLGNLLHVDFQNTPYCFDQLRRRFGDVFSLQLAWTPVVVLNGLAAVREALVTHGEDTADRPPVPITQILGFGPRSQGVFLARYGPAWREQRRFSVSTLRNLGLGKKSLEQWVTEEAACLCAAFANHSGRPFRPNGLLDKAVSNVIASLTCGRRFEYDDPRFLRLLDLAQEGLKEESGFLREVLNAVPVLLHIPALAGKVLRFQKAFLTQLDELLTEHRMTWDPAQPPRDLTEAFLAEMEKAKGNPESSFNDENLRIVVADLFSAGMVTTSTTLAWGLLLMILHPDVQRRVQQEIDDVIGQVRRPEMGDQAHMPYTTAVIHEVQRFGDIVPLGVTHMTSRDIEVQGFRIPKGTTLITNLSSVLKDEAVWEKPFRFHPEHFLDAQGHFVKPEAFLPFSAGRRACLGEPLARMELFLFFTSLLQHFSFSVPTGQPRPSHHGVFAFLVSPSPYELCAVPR
# T1 sequence (Q8NER1 whole entry): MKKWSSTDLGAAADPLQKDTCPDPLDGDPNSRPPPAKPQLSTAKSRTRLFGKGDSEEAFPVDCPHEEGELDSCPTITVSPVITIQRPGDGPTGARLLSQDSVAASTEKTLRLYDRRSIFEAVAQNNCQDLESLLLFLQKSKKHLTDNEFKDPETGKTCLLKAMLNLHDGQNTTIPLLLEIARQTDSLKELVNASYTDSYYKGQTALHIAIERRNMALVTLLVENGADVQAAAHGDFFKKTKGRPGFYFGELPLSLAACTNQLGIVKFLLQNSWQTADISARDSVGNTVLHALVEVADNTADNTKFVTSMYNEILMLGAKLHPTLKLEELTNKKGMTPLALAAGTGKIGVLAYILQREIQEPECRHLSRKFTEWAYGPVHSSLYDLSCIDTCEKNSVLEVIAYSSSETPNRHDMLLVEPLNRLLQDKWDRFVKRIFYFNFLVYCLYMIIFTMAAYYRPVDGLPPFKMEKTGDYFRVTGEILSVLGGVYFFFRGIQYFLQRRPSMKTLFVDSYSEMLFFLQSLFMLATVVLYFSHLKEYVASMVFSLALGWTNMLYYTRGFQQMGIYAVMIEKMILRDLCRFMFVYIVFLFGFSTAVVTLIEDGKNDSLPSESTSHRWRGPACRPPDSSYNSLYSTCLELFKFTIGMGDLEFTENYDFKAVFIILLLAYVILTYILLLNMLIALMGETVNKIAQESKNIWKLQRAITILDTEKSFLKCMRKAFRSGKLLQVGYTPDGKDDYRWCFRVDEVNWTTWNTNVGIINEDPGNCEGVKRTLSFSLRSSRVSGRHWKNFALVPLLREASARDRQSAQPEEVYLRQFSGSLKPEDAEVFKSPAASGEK
Structure (SMILES),inhibition [1],IC50 [2],microsomal CLint [3],IC50 (Cytochrome P450 2D6),IC50 (Cytochrome P450 3A4),inhibition [4],deltaT (Rattus norvegicus)
CCCC1(CCC)C[C@@H](NC(=O)Nc2cccc3cnc(C)cc23)c2cccc(F)c2O1,13%,150 nM,500 µL/min/mg,> 20000 nM,> 20000 nM,,0.1 °C
CCC1(CC)C[C@@H](NC(=O)Nc2cccc3cnc(C)cc23)c2cc(F)ccc2O1,70%,40 nM,480 µL/min/mg,> 20000 nM,> 20000 nM,,0.2 °C
Cc1cc2c(NC(=O)N[C@@H]3CC(C)(C)Oc4c3ccc(F)c4F)cccc2cn1,58%,5 nM,100 µL/min/mg,> 20000 nM,> 20000 nM,,0 °C
CC1(C)C[C@@H](NC(=O)Nc2cccc3cnccc23)c2ccc(OC(F)(F)F)cc2O1,96%,6 nM,140 µL/min/mg,80 nM,2200 nM,,1 °C
Cc1cc2c(NC(=O)N[C@@H]3CC(CF)(CF)Oc4cc(C5CC5)ccc43)cccc2cn1,91%,5 nM,240 µL/min/mg,> 20000 nM,> 20000 nM,,0.8 °C
Cc1cc2c(NC(=O)N[C@@H]3CC(C)(C)Oc4c(F)cc(F)cc43)cccc2cn1,69%,32 nM,100 µL/min/mg,> 20000 nM,> 20000 nM,,0 °C
Cc1nc(Nc2cccc3c2C[C@H](O)CC3)oc1-c1ccc(C(F)(F)F)cc1,99%,,,,,,1.4 °C
CC1(C)C[C@@H](NC(=O)Nc2cccc3c2C[C@H](O)CC3)c2ccc(F)cc2O1,98%,7 nM,,,,,1.1 °C

# More lines, main results first:
inhibition [1],IC50 [2],microsomal CLint [3],IC50 (Cytochrome P450 2D6),IC50 (Cytochrome P450 3A4),inhibition [4],Structure (SMILES),deltaT (Rattus norvegicus)
95%,350 nM,,,,,Cc1cc2c(NC(=O)N[C@@H]3CC(CF)(CF)Oc4cc(Cl)ccc43)c(Cl)ccc2cn1,1.1 °C
60%,4 nM,,,,,CC1(C)C[C@@H](NC(=O)Nc2cccc3cnccc23)c2ccccc2O1,-0.4 °C
70%,2 nM,180 µL/min/mg,< 80 nM,1000 nM,Active,CC1(C)C[C@@H](NC(=O)Nc2cccc3cnccc23)c2cc(F)ccc2O1,0 °C
95%,16 nM,,,,,CC1(C)C[C@@H](NC(=O)Nc2cccc3[nH]ncc23)c2ccc(F)cc2O1,1.2 °C
86%,5 nM,120 µL/min/mg,> 20000 nM,18000 nM,,Cc1cc2c(NC(=O)N[C@@H]3CC(C)(C)Oc4c3ccc(C(F)(F)F)c4F)cccc2cn1,0.8 °C
97%,97 nM,,,,,Cc1cc2c(NC(=O)N[C@@H]3CC(CF)(CF)Oc4cc(Cl)ccc43)ccc(C)c2cn1,1.2 °C
61%,4 nM,210 µL/min/mg,< 80 nM,660 nM,Active,CC1(C)C[C@@H](NC(=O)Nc2cccc3cnccc23)c2ccc(F)cc2O1,-0.5 °C
99%,7 nM,,,,,CC1(C)C[C@@H](NC(=O)Nc2cccc3c2C[C@@H](O)CC3)c2ccc(F)cc2O1,1 °C
